Consider 12 molecules from patent US8563715B2, “Pyrimidine derivative having cell protecting effect and uses thereof” (Zenyaku Kogyo Kabushikikaisha, priority 2008, dated 2013).

Broadly, the IC50 is the concentration that gives 50% inhibition. A lower IC50 goes with higher potency.

Assay [1] has as its system neurons in astrocyte/neuron co-culture. Put plainly: Brain cell damage induced by hydrogen peroxide treatment (neuroprotective effect, microscope observation). It counts as cell-based. Conditions: Rattus norvegicus, hydrogen peroxide (250 μM), 24 hours, read-out: Concentration for complete inhibition of neuronal death. The method, then:
The brain was removed from 1 to 2 day old Wistar rats (Charles River) or Sprague-Dawley (IGS) rats (Charles River), and the cerebral cortex including the hippocampus was excised under ice cooling. After this cerebral cortex was minced, it was digested with papain solution (9 U/ml) containing DNase I (30 U/ml) at 37 degrees Celsius for 15 minutes, dispersing the cells. After further carrying out mechanical dispersing by pipetting, it was passed through a cell strainer with a pore size of 70 μm, and a cell suspension was obtained. Cells derived from 1.4 cerebra were seeded on 150 mm tissue culture dish (Iwaki Glass), and primary culture was carried out at 37 degrees Celsius and 5% CO2 using a D-MEM medium (Invitrogen) containing 10% heat-inactivated fetal calf serum (JRH). One day after the start of the culture, the nonadherent cells were removed, and the primary cultured astrocytes were obtained by continuing the culture for 4 to 5 further days. The primary cultured astrocytes were dispersed by trypsin treating, suspended in cryopreservation solution, and cryopreserved.
After thawing the cryopreserved primary cultured astrocytes, they were seeded on tissue culture plates (Iwaki Glass), and a confluent astrocyte layer was produced by a further 7 days of secondary culture using a D-MEM medium containing 10% heat-inactivated fetal calf serum. Neurons to be used in the co-culture with the astrocyte layer were obtained from fetal rat cerebrum. Briefly, brains were removed from Wistar rats (Charles River) or Sprague-Dawley (IGS) rats (Charles River) of embryonic age 18.5 days, and the cerebral cortex including the hippocampus was excised under ice cooling. After this cerebral cortex was minced, it was digested in papain solution (9 U/ml) containing DNase I (30 U/ml) at 37 degrees Celsius for 15 minutes, dispersing the cells. After further carrying out mechanical dispersing by pipetting, it was passed through a cell strainer with a pore size of 70 μm, and a cell suspension was obtained. This cell suspension was plated at a density of 1.3×10^5 cells/cm^2 on the astrocyte layer, and a co-culture was carried out using D-MEM/F-12 medium (Invitrogen) containing 10% heat-inactivated fetal calf serum and 5% horse serum (Invitrogen). 2 days after the start of the co-culture, cells were treated for 24 hours with 10 μM cytosine arabinoside in order to suppress the excessive cell proliferation of microglia and the like. 8 to 9 days after the start of the co-culture, cells were used for the test. Additionally, using one portion of the cells, immunofluorescent staining and nuclear staining was carried out with astrocyte recognizing antibodies (anti-GFAP) and neuron recognizing antibodies (anti-MAP2), in order to confirm that the present culture system is a co-culture system of astrocytes and neurons.
An astrocyte/neuron co-culture cultured on a 96 well plate was used in the test. A predetermined concentration of the test substance and hydrogen peroxide (250 μM) was simultaneously added to the cell culture in each well with continuing cultivation, and analysis was done 24 hours after this treatment. Using an LDH Cytotoxicity Detection Kit (Takara Bio), analysis was carried out in accordance with the included instruction manual, and the damage to the entire co-culture system by the hydrogen peroxide treatment and the protective effect (EC 50 value) of the test substance was evaluated. Further, the cell bodies and the neuronal processes of the neurons were observed by microscope, and the neuroprotective effect was evaluated.

The subject of assay [2] is astrocyte/neuron co-culture. In words: Brain cell damage induced by hydrogen peroxide treatment (LDH assay). It counts as cell-based. The note with it: Rattus norvegicus, hydrogen peroxide (250 μM), 24 hours, read-out: 50% inhibition concentration against cell damage in entire co-culture system (EC50 value). Put shortly: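 Rat primary cortical/hippocampal co-cultures were used 8–9 days after plating neurons (E18.5) on neonatal astrocyte layers. Test substance was added together with 250 μM hydrogen peroxide, and cells were analysed 24 h later. LDH release gave EC50 for protection of the whole co-culture, and microscopy of neuronal cell bodies and processes gave neuroprotection.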

Assay [3] deals with rat brain homogenate (lipid peroxide production). In words: Antioxidant activity test (rat brain homogenate autoxidation test). Conditions: lipid peroxide production suppression, 2 hours at 37 degrees Celsius, thiobarbituric acid method. The class given is biochemical. The method, then:
The cerebrum was removed from 7 to 11 week old male Wistar rats (Nihon Ikagaku) or male Sprague-Dawley (IGS) rats (Charles River), physiological saline was added, and a 20% brain homogenate was made. 4 μl of test compound dissolved in DMSO was mixed with 200 μl of brain homogenate and 200 μl of PBS (−) (diluted 100 times), incubated for 2 hours at 37 degrees Celsius and shaken at a rate of 160 times per minute, thereby producing a lipid peroxide. After cooling for 5 minutes, the produced lipid peroxide was measured as a thiobarbituric acid reactive substance by using the thiobarbituric acid method. Briefly, 100 μl of 8.1% dodecyl sulfate, 750 μl of 20% acetic acid adjusted to a pH of 3.5, and 750 μl of 0.8% thiobarbituric acid were added, and boiled for 60 minutes, and then cooled. Next, 500 μl of distilled water and 2.5 ml of N-butanol/pyridine (15:1) were added and after 5 minutes of shaking, the supernatant was taken after centrifuging for 10 minutes at 3000 rpm, and the absorbance at 532 nm was measured. The number of examples was 2 examples. Calculation was done of the (absorbance at each concentration/absorbance of a solvent control)×100, and after logit transformation, the lipid peroxide production suppression effect (IC 50 value) was calculated as an indicator of antioxidant activity.

As to `Cc1ccc(N2CCN(c3nc(N4CCOCC4)nc(N4CCOCC4)c3F)CC2)cc1` [Compound 99, 5-fluoro-4-[4-(4-methylphenyl)piperazin-1-yl]-2,6-dimorpholinopyrimidine], the EC100 in assay [1] worked out at 1 µM. The EC50 in assay [2] came to 0.4 µM. Moreover, the IC50 in assay [3] is 7.51 µM.
The corresponding values for `CNc1nc(/C=C/c2ccc(OC)cc2)nc(N2CCOCC2)c1N` [Compound 139, 5-amino-2-[2-(4-methoxyphenyl)vinyl]-4-methylamino-6-morpholinopyrimidine] are 3 µM, 1.15 µM and 0.11 µM.
Regarding `CN(C)c1nc(N2CCOCC2)c(F)c(N2CCN(c3ccccn3)CC2)n1` [Compound 91, 2-dimethylamino-5-fluoro-6-morpholino-4-[4-(pyridin-2-yl)piperazin-1-yl]pyrimidine], in assay [1], the EC100 was 10 µM. Moreover, the EC50 in assay [2] was found to be 0.88 µM. The IC50 in assay [3] was 5.88 µM.
For `Oc1ccc(N2CCN(c3nc(N4CCOCC4)cc(N4CCOCC4)n3)CC2)cc1` [Compound 30, 2-[4-(4-hydroxyphenyl)piperazin-1-yl]-4,6-dimorpholinopyrimidine] the same measures were 10 µM, 3.01 µM and 6.84 µM.
For `Nc1c(N2CCOCC2)nc(N2CCN(c3ccccc3)CC2)nc1N1CCOCC1` [Compound 63, 5-amino-4,6-dimorpholino-2-(4-phenylpiperazin-1-yl)pyrimidine] the same measures were 30 µM, 8.3 µM and 0.81 µM.
For `Cn1c(/C=C/c2nc(N3CCOCC3)c(N)c(N3CCOCC3)n2)cc2sccc21` [Compound 133, 5-amino-2-[2-(4-methylthiopheno[1,2-b]pyrrol-5-yl)vinyl]-4,6-dimorpholinopyrimidine] the same measures were 30 µM, 2.03 µM and 1.04 µM.
For `COc1ccc(/C=C/c2nc(N3CCOCC3)c(N)c(N(C)C3CCN(C)CC3)n2)cc1` [Compound 198, 5-amino-2-[2-(4-methoxyphenyl)vinyl]-4-[N-methyl-N-(1-methylpiperidin-4-yl)amino]-6-morpholinopyrimidine], the EC100 in assay [1] amounted to 10 µM. In addition, the EC50 in assay [2] is 3.74 µM. This molecule had an IC50 in assay [3] of 1.04 µM.
For the molecule `Cc1ccc(N2CCN(c3nc(N4CCNCC4)nc(N4CCOCC4)c3F)CC2)cc1` [Compound 149, 5-fluoro-4-[4-(4-methylphenyl)piperazin-1-yl]-6-morpholino-2-(1-piperazinyl)pyrimidine], in assay [1], the EC100 worked out at 10 µM. In addition, in assay [2], the EC50 stood at 0.42 µM. For the same molecule, 9.75 µM corresponded to half-maximal inhibition in assay [3] (IC50).
On to `Fc1c(N2CCOCC2)nc(N2CCc3ccccc3C2)nc1N1CCOCC1` [Compound 122, 5-fluoro-4,6-dimorpholino-2-(1,2,3,4-tetrahydro-2H-isoquinolin-2-yl)pyrimidine], for which the EC100 in assay [1] was determined as 1 µM. Besides, the EC50 in assay [2] worked out at 0.29 µM. Moreover, the IC50 in assay [3] stood at 5.48 µM.
As for `COc1ccc(/C=C/c2nc(NCCN3CCNCC3)c(N)c(N3CCOCC3)n2)cc1` [Compound 173, 5-amino-2-[2-(4-methoxyphenyl)vinyl]-4-morpholino-6-[2-(1-piperazinyl)ethylamino]pyrimidine], the EC100 in assay [1] turned out to be 30 µM. For the same molecule, the EC50 in assay [2] was 4.72 µM. In assay [3], this molecule yielded a 50% inhibitory concentration (IC50) of 2.08 µM.
For `Fc1c(N2CCOCC2)nc(N2CCN(c3ccccc3)CC2)nc1N1CCOCC1` [Compound 82, 5-fluoro-4,6-dimorpholino-2-(4-phenylpiperazin-1-yl)pyrimidine], in assay [1], the EC100 came to 3 µM. For the same molecule, the EC50 in assay [2] was 0.6 µM. In addition, in assay [3], the IC50 stood at 9.2 µM.
For `c1ccc(N2CCN(c3cc(N4CCOCC4)nc(N4CCN(c5ccccc5)CC4)n3)CC2)cc1` [Compound 57, 2,4-bis(4-phenylpiperazin-1-yl)-6-morpholinopyrimidine] the same measures were 30 µM, 5.12 µM and 30.5 µM.
